Assay [1] has as its system MCF-10A cells. In words: Chemosensitivity assay (MTT cell viability). It is filed as cell-based, human. The conditions noted are these: for effect of ectopic TAp73β expression on sensitivity: retroviral TAp73β vs control vector. On the procedure:
(§1) Chemosensitivity assay. Dose-response curves and IC50 values were determined using the methyl thiazolyl tetrazolium (MTT) cell viability assay as described previously (52). Cells were seeded into 96-well microtiter plates for 24 hours at a density of 5×10^3 per well. Serial drug dilutions were prepared in medium immediately before each assay and viable cell masses following 3 days or 5 days of drug exposure were determined by cell-mediated MTT reduction. Cell growth as well as drug activity were determined by measuring absorbance at 550 nm using an Anthos Labtec systems plate reader.

Assay [2] has as its system PUMA and NOXA. In words: QRT-PCR of pro-apoptotic effector genes after drug treatment. In kind it is cell-based, human. The procedure: ORT-PCR analysis. Total RNA from cells was extracted using STAT-60 RNA isolation solution (Tel-Test Inc., Friendswood, USA) according to manufacturer's protocol. First-strand cDNA was synthesized from total RNA using random hexamer primers and the SuperScript II system for RT-PCR (Invitrogen). Gene expression levels were measured by real-time QRT-PCR using the iQ SYBR Green Supermix reagent (Bio-Rad) and an OPTICON™ real-time PCR detector system (MJ Research). Data analysis was performed using OPTICON MONITOR™ Analysis Software V1.08 (MJ Research). The expression of each gene was normalized to GAPDH or B2M as a reference. The relative copy numbers were calculated from an 8-point standard curve generated from a ten fold serial dilution of full length cDNA constructs as described previously (15).
Specific forward and reverse primers (respectively) for ΔNp63 were: 5′-[…]-3′ and 5′-[…]-3′; for TAp63 were 5′-[…]-3′ and 5′-[…]-3′; for TAp73 were 5′-[…]-3′ and […]-3′; for ΔNp73 were 5′-[…]-3′ and 5′-[…]-3′; for GAPDH were: 5′-[…]-3′ and 5′-[…]-3′ and for detection of B2M were 5′-[…]-3′ and 5′-[…]-3′. The conditions for all QRT-PCR reactions were: 3 min at 94° C., followed by 40 sec at 94° C., 40 sec at 60° C. and 25 sec at 72° C. for 40 cycles. All PCR products were confirmed by the presence of a single-peak upon melting-curve analysis and by gel electrophoresis. No-template (water) reaction mixtures and “no reverse transcriptase” mixtures were performed on all samples as negative controls. All experiments were performed in duplicate.

In assay [3] the test system is ΔNp63α/TAp73 complex. In words: Co-immunoprecipitation of the ΔNp63α/TAp73 complex.
Assay [4] deals with MCF-7 cells. In words: Chemosensitivity assay (MTT cell viability). In kind it is cell-based, human. The conditions noted are these: TAp73 knockdown. On the procedure: as §1
The test system of assay [5] is MDA-MB-468 cells. In words: Chemosensitivity assay (MTT cell viability). It is filed as cell-based, human. The procedure:
as §1

For assay [6], the system named is HCC-1937 cells. In words: Chemosensitivity assay (MTT cell viability). In kind it is cell-based, human. The procedure:
as §1

In assay [7] the test system is human breast cancer-derived cell lines. The assay is described as follows: p73/p63 biomarker and in vitro cisplatin sensitivity. It is filed as cell-based. The following applies: Biomarker Positive cell lines. The procedure:
as §1
Correlation of DNp63/TAp73 biomarker expression and cisplatin sensitivity in vitro. The inventors next established the threshold for DNp63/TAp73 biomarker expression that reflected the biochemcially-defined cisplatin sensitivity pathway. The inventors defined biomarker positivity as a DNp63/TAp73 ratio >2, a value that corresponds to the molar ratio of DNp63 required to inactivate essentially all (>99%) pro-apoptotic TAp73 through DNp63/TAp73 hetero-tetramer formation. The inventors assessed the ability of this defined biomarker threshold to predict cisplatin sensitivity in a limited number of human breast cancer-derived cell lines. As shown below in Table 2, the positively for the biomarker correlated with cisplatin sensitivity in these cells. […]

For assay [8], the system named is TAp73. The assay is described as follows: IP/immunoblot for p73 tyrosine phosphorylation. For orientation: A western blot detects proteins with antibodies after separation by electrophoresis.
Assay [9] concerns the target T1, Y99F TAp73α (human, UniProt O15350 1-636).
T1 construct: Expressed via retrovirus in MCF-10A cells; also called site-specific Y99F mutant TAp73α
T1 sequence: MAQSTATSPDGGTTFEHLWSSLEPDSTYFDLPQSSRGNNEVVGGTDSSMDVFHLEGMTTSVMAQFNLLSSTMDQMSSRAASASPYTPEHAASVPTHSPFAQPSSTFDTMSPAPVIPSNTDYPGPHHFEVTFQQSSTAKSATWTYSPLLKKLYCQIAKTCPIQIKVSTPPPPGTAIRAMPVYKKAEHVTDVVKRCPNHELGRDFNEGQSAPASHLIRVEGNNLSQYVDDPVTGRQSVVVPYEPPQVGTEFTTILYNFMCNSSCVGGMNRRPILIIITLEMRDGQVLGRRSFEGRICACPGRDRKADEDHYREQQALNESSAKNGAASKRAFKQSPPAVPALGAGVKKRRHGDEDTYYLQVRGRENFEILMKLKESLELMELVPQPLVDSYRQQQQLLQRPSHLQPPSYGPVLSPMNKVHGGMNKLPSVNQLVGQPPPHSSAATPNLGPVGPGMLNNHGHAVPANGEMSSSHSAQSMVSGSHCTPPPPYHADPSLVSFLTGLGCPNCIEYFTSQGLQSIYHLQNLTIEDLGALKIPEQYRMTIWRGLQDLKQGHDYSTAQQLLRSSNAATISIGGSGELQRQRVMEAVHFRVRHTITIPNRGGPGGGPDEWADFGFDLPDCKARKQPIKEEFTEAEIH
In words: IP for p63 or p73 with immunoblot, MCF-10A cells with retroviral Y99F TAp73α, after cisplatin.

The target in assay [10] is T2, wild-type TAp73α (retrovirally expressed in MCF-10A cells) (human, UniProt O15350 1-636).
T2 construct: Ectopic wild-type TAp73α expressed via retrovirus in MCF-10A cells; It is tyrosine phosphorylated after cisplatin treatment; Construct limits and tags are not described; also called retroviral TAp73α
T2 sequence: T1 sequence with F99Y
In words: co-IP, MCF-10A cells, untreated.

The mark [11] stands for this setting: MCF-10A cells, cisplatin treatment.

Substitutions are numbered along the chain they refer to.

Take `COc1cccc2c1C(=O)c1c(O)c3c(c(O)c1C2=O)C[C@@](O)(C(=O)CO)C[C@@H]3O[C@H]1C[C@H](N)[C@H](O)[C@H](C)O1` [doxorubicin]: the “effect of ectopic TAp73β expression on sensitivity” value (“effect of ectopic TAp73β expression” below) in assay [1] is listed as “did not significantly enhance sensitivity”. Moreover, the “induction of other pro-apoptotic effectors” value in assay [2] (equally toxic concentration) is on record as “no significant induction”. For the same molecule, the “increase in PUMA” value in assay [2] (equally toxic concentration as cisplatin) turned out to be 2 fold.

Turning to `N.N.[Cl][Pt][Cl]` [cisplatin, cis-diaminedichloroplatinuim (II)], in assay [3] (MCF-10A cells, 6 hours), the “dissociation of Y99F TAp73 from ΔNp63α” value is “essentially no dissociation” and the “dissociation of ΔNp63α from wild-type TAp73” value was “substantial dissociation”. In assay [3] (endogenous proteins, breast cancer cells, following treatment), the “dissociation of the ΔNp63α/TAp73 complex” value was “substantial dissociation”. For the same molecule, the “TAp73 as mediator of sensitivity” value in [4] is “not a mediator of sensitivity”. In addition, in [5] (TAp73-directed lentiviral shRNA vs vector control, MDA MB-468), the “effect of TAp73 knockdown on the IC50” value is reported as “more than 10 fold”. In addition, in assay [1], the “effect of Y99F TAp73 expression on sensitivity” value was “little, if any, effect” and the “effect of ectopic TAp73β expression” value is “significantly increased the sensitivity”. The “effect of wild-type TAp73 expression on sensitivity” value in [1] (P<0.01) is listed as “significantly increased sensitivity”. This molecule also returned an IC70 dose in [6] (HCC-1937 cells) of 6.6 µM. For the same molecule, in assay [6] (TAp73-directed lentiviral shRNA vs vector control, HCC-1937), the “effect of TAp73 knockdown on the IC50” value is recorded as “more than 10 fold”. Moreover, in assay [7], the “Percent Sensitive” value is 57% ( 4/7). The “induction of PUMA and NOXA” value in assay [2] (HCC-1937 cells, following treatment) is listed as “robustly induced”. In addition, in assay [2] (after cisplatin treatment), the “time to TAp73-dependent transcription of PUMA and NOXA” value is at most 2 h. For the same molecule, in assay [8] (HCC-1937 and MB-468 cells, maximal at 6 hours), the “tyrosine phosphorylation of p73” value was “tyrosine phosphorylation of p73 was observed”. In assay [8] (setting [11]), the “phosphorylation of Y99F TAp73” value is recorded as “little detectable phosphorylation” and the “phosphorylation of ectopic wild-type TAp73” value is reported as “strongly phosphorylated”.

Turning to `Cc1ccc(NC(=O)c2ccc(CN3CCN(C)CC3)cc2)cc1Nc1nccc(-c2cccnc2)n1` [STI-571, Imatinib], the cell proliferation entry was “did not affect” in assay [5] (MDA-MB-468, at the dose used in these assays) and “did not affect” in assay [6] (HCC-1937, at the dose used in these assays). For the same molecule, the “rescue from cell death induced by cisplatin” value in assay [5] (pretreatment, then cisplatin, MDA-MB-468) is reported as “substantial rescue”; in [6] (pretreatment, then cisplatin, HCC-1937), “substantial rescue”. For the same molecule, in [2] (HCC-1937 and MDA-MB-468 cells), the “baseline NOXA expression” value is reported as “no effect”. For the same molecule, in assay [2] (pretreatment, HCC-1937 and MDA-MB-468 cells, 6 hours), the “p73-dependent induction of NOXA following cisplatin treatment” value is listed as “blocked”.

With `CC(=O)O[C@H]1C(=O)[C@@]2(C)[C@H]([C@H](OC(=O)c3ccccc3)[C@]3(O)C[C@H](OC(=O)[C@H](O)[C@@H](NC(=O)c4ccccc4)c4ccccc4)C(C)=C1C3(C)C)[C@]1(OC(C)=O)CO[C@@H]1C[C@@H]2O` [paclitaxel], the “effect of ectopic TAp73β expression” value in assay [1] was “did not significantly enhance sensitivity”.

B1: ΔNp63α (other)
chain: MLYLENNAQTQFSEPQYTNLGLLNSMDQQIQNGSSSTSPYNTDHAQNSVTAPSPYAQPSSTFDALSPSPAIPSNTDYPGPHSFDVSFQQSSTAKSATWTYSTELKKLYCQIAKTCPIQIKVMTPPPQGAVIRAMPVYKKAEHVTEVVKRCPNHELSREFNEGQIAPPSHLIRVEGNSHAQYVEDPITGRQSVLVPYEPPQVGTEFTTVLYNFMCNSSCVGGMNRRPILIIVTLETRDGQVLGRRCFEARICACPGRDRKADEDSIRKQQVSDSTKNGDGTKRPFRQNTHGIQMTSIKKRRSPDDELLYLPVRGRETYEMLLKIKESLELMQYLPQHTIETYRQQQQQQHQHLLQKQTSIQSPSSYGNSSPPLNKMNSMNKLPSVSQLINPQQRNALTPTTIPDGMGANIPMMGTHMPMAGDMNGLSPTQALPPPLSMPSTSHCTPPPPYPTDCSIVSFLARLGCSSCLDYFTTQGLTTIYQIEHYSMDDLASLKIPEQFRHAIWKGILDHRQLHEFSSPSHLLRTPSSASTVSVGSSETRGERVIDAVRFTLRQTISFPPRDEWNDFNFDMDARRNKQQRIKEEGE
notes: The text mentions hetero-tetramers with TAp73, but the stoichiometry was not measured; also called DNp63a; DNp63α
For B1, the binding result in assay [9] and in [10] was “binds” in each case.

Source of the values: patent US20100035257A1 (GENERAL HOSPITAL, published 2010).
